Measured values reported in patent US20210308228A1, “METHOD FOR REDUCING THE OCCURRENCE OF THROMBOSIS OR THROMBOEMBOLISM” (THE BOARD OF REGENTS OF THE UNIVERSITY OF TEXAS SYSTEM, priority 2020, published 2021).
Marks after values point to notes of the source that are not given here.

Experiments:
[1] = system: FXa; assay: Anti-FXa levels determined chromogenically (ACL-TOP) in plasma treated ex vivo with enoxaparin; assay type: biochemical, human; conditions: for Anti FXa levels (IU/mL): median
Source text: (§1) Citrated plasma samples were thawed immediately prior to use. First, plasma from healthy, uninjured volunteers was used to optimize ex vivo dosing of enoxaparin. […] Given that the inventors spiked plasma with an enoxaparin dose of 0.13 IU/mL, our target anti-FXa level in response to enoxaparin was defined as 0.13 IU/mL. The responses to enoxaparin between healthy uninjured volunteers and trauma patients were compared by treating all plasma samples ex vivo with 0.13 IU/mL of enoxaparin. Trauma patient samples were additionally supplemented with AT using either FFP at a dose of 30% volume or AT concentrate in the form of THROMBATE III®, provided by Grifols, up to 80%, 120%, 150%, 180%, and 200% final concentration based on baseline values. This was done in an effort to improve patient plasma responses to enoxaparin to the levels observed in healthy controls. Similar to our previous work, the inventors chose FFP at a dose of 30% volume to model the effects of transfusing six units of plasma. Calculations were based on the activity (IUs) provided by the manufacturer for a given lot of THROMB ATE III® (approximately 500 IUs/10 mL) and the patient's baseline AT activity levels. AT supplementation was confirmed by measuring AT activity using ACL-TOP. Thrombin generation and anti-FXa levels were measured to assess the response to enoxaparin and supplementation with AT. Healthy volunteer plasma served as an uninjured control for normal AT, anti-FXa, and thrombin generation levels before and after treatment with enoxaparin.
(§2) AT activity and anti-FXa levels were determined chromogenically using an ACL-TOP Coagulation Analyzer (Instrumentation Laboratory, Bedford Mass.). Thrombin generation was measured using a calibrated automated thrombogram (CAT) (Thermo Fisher Scientific, Waltham Mass.) as previously described. Relevant parameters resulting from CAT analysis include lag time (the time to initiation of thrombin generation; min), peak (the highest amount of thrombin generated; nM), time to peak [ttpeak] (the time it takes to achieve the peak; min), endogenous thrombin potential [ETP] (the total amount of thrombin generated over time; […]), and rate (the velocity of thrombin generation dictated by the slope of the thrombin generation curve; nM/min).

[2] = system: thrombin generation; assay: Thrombin generation by calibrated automated thrombogram (CAT) in plasma treated ex vivo; assay type: biochemical, human; conditions: for Delta ETP (%) / Delta Lagtime (%) / Delta Peak (%) / Delta Rate (%) / Delta ttPeak (%): enoxaparin 0.13 U/mL, median change vs baseline
Source text: as §1, §2

[3] = Healthy Donors (N = 15) plasma, enoxaparin 0.13 U/mL
[4] = No PE patients (N = 46) plasma, enoxaparin 0.13 U/mL
[5] = PE patients (N = 54) plasma, enoxaparin 0.13 U/mL
[6] = Trauma Patients (N = 100) plasma, enoxaparin 0.13 U/mL
[7] = Trauma Patients (N = 100) plasma

In the case of enoxaparin, the “Rate Anti FXa ≥ 0.13 (number)” value [1, 3] is reported as 15, the “Rate Anti FXa ≥ 0.13 (percentage)” value [1, 3] is reported as “(100%)” and the “Anti FXa levels (IU/mL)” value [1, 3] is reported as 0.16 IU/mL. The “Rate Anti FXa ≥ 0.13 (number)” value [1, 4] was 26, the “Rate Anti FXa ≥ 0.13 (percentage)” value [1, 4] was “(57%)” and the “Anti FXa levels (IU/mL)” value [1, 4] was 0.14 IU/mL. For the same substance, the “Rate Anti FXa ≥ 0.13 (number)” value [1, 5] was 24, the “Rate Anti FXa ≥ 0.13 (percentage)” value [1, 5] was “(44%)” and the “Anti FXa levels (IU/mL)” value [1, 5] was 0.13 IU/mL. The “Rate Anti FXa ≥ 0.13 (number)” value [1, 6] was 59, the “Rate Anti FXa ≥ 0.13 (percentage)” value ([1]; Trauma Patients (N = 100) plasma, enoxaparin 0.13 U/mL alone) was “(59%)*” and the “Rate Anti FXa ≥ 0.13 (percentage)” value ([1]; Trauma Patients (N = 100) plasma, enoxaparin 0.13 U/mL alone, listed as enoxaparin) was 59%. For the same substance, the “Anti FXa levels (IU/mL)” value [1, 6] was 0.13 IU/mL, the “Delta ETP (%)” value ([2]; Healthy Donors (N = 15) plasma) was −43% and the “Delta Lagtime (%)” value ([2]; Healthy Donors (N = 15) plasma) was 6.6%. The “Delta Peak (%)” value ([2]; Healthy Donors (N = 15) plasma) was −55%, the “Delta Rate (%)” value ([2]; Healthy Donors (N = 15) plasma) was −65% and the “Delta ttPeak (%)” value ([2]; Healthy Donors (N = 15) plasma) was 17%. For the same substance, the “Delta ETP (%)” value ([2]; No PE patients (N = 46) plasma) was −15.6%, the “Delta Lagtime (%)” value ([2]; No PE patients (N = 46) plasma) was 6.6% and the “Delta Peak (%)” value ([2]; No PE patients (N = 46) plasma) was −30.6%. The “Delta Rate (%)” value ([2]; No PE patients (N = 46) plasma) was −45.4%, the “Delta ttPeak (%)” value ([2]; No PE patients (N = 46) plasma) was 13.0% and the “Delta ETP (%)” value ([2]; PE patients (N = 54) plasma) was −13.2%. The “Delta Lagtime (%)” value ([2]; PE patients (N = 54) plasma) was 7.9%, the “Delta Peak (%)” value ([2]; PE patients (N = 54) plasma) was −20.7% and the “Delta Rate (%)” value ([2]; PE patients (N = 54) plasma) was −34.2%. The “Delta ttPeak (%)” value ([2]; PE patients (N = 54) plasma) was 10.7%, the “Delta ETP (%)” value [2, 7] was −14% and the “Delta Lagtime (%)” value [2, 7] was 7.9%. The “Delta Peak (%)” value [2, 7] was −24%, the “Delta Rate (%)” value [2, 7] was −39% and the “Delta ttPeak (%)” value [2, 7] was 12%. The “reduction in peak thrombin” value ([2]; plasma of patients who did develop PE, ex vivo enoxaparin) was 20.7% and the “median reduction in peak thrombin” value ([2]; plasma of patients who did not develop PE, ex vivo enoxaparin) was 30.6%.
